According to the NIST ThermoML archive (doi:10.1021/je060271a):
Values joined by “and” are separate entries in the source; they are usually repeats but may differ in a detail not shown here. Equal values may be shown once.

Conditions: 283.16 K, Liquid, Vibrating tube method

CCCCCC(=O)OCC(COC(=O)CCCCC)(COC(=O)CCCCC)COC(=O)CCCCC [pentaerythritol tetrahexanoate]
Conditions	mass density
94 kPa	1004.3 kg/m3
94.1 kPa	1004.2 kg/m3 and 1004.1 kg/m3
94.2 kPa	1004.2 kg/m3
94.3 kPa	1004.2 kg/m3
94.5 kPa	1004.2 kg/m3 and 1004.1 kg/m3
94.7 kPa	1004.1 kg/m3
94.8 kPa	1004.2 kg/m3
95 kPa	1004.1 kg/m3 and 1004.2 kg/m3
95.2 kPa	1004.1 kg/m3 and 1004.3 kg/m3
95.4 kPa	1004.2 kg/m3 and 1004.1 kg/m3
95.5 kPa	1004.2 kg/m3 and 1004.1 kg/m3
95.9 kPa	1004.2 kg/m3
96.1 kPa	1004.2 kg/m3
96.9 kPa	1004.1 kg/m3
97.1 kPa	1004.3 kg/m3
97.4 kPa	1004.3 kg/m3
97.8 kPa	1004.1 kg/m3
98.1 kPa	1004.2 kg/m3
98.3 kPa	1004.4 kg/m3
98.5 kPa	1004.1 kg/m3
98.6 kPa	1004.2 kg/m3
99 kPa	1004.2 kg/m3
99.3 kPa	1004.2 kg/m3
99.5 kPa	1004.2 kg/m3
99.7 kPa	1004.2 kg/m3 and 1004.1 kg/m3
100 kPa	1004.1 kg/m3 and 1004.2 kg/m3
100.2 kPa	1004.2 kg/m3 and 1004.3 kg/m3
100.4 kPa	1004.2 kg/m3
100.5 kPa	1004.2 kg/m3
100.7 kPa	1004.1 kg/m3
101 kPa	1004.2 kg/m3 and 1004.1 kg/m3
101.1 kPa	1004.2 kg/m3
101.2 kPa	1004.3 kg/m3 and 1004.1 kg/m3
101.4 kPa	1004.3 kg/m3 and 1004.1 kg/m3
101.7 kPa	1004.2 kg/m3
102.2 kPa	1004.1 kg/m3
102.4 kPa	1004.2 kg/m3
102.6 kPa	1004.2 kg/m3 and 1004.1 kg/m3
102.8 kPa	1004.3 kg/m3
103.1 kPa	1004.1 kg/m3 and 1004.2 kg/m3
103.3 kPa	1004.2 kg/m3
103.4 kPa	1004.1 kg/m3
103.6 kPa	1004.1 kg/m3
104 kPa	1004.1 kg/m3 and 1004.3 kg/m3
104.1 kPa	1004.1 kg/m3
104.3 kPa	1004.2 kg/m3
104.5 kPa	1004.1 kg/m3 and 1004.2 kg/m3
105 kPa	1004.2 kg/m3
105.2 kPa	1004.1 kg/m3
105.3 kPa	1004.2 kg/m3
105.5 kPa	1004.1 kg/m3
105.8 kPa	1004.2 kg/m3 and 1004.3 kg/m3
106 kPa	1004.1 kg/m3
106.2 kPa	1004.2 kg/m3
106.3 kPa	1004.2 kg/m3
106.4 kPa	1004.1 kg/m3
106.5 kPa	1004.2 kg/m3
106.7 kPa	1004.3 kg/m3
106.9 kPa	1004.2 kg/m3
107 kPa	1004.2 kg/m3 and 1004.1 kg/m3
107.2 kPa	1004.1 kg/m3
107.9 kPa	1004.2 kg/m3 and 1004.3 kg/m3
108.2 kPa	1004.2 kg/m3
108.6 kPa	1004.2 kg/m3
108.7 kPa	1004.1 kg/m3 and 1004.2 kg/m3
108.9 kPa	1004.2 kg/m3
109.4 kPa	1004.2 kg/m3
109.6 kPa	1004.2 kg/m3
109.8 kPa	1004.1 kg/m3
109.9 kPa	1004.2 kg/m3
110.1 kPa	1004.2 kg/m3
110.3 kPa	1004.2 kg/m3
110.5 kPa	1004.1 kg/m3
110.6 kPa	1004.4 kg/m3 and 1004.2 kg/m3
110.8 kPa	1004.2 kg/m3
111 kPa	1004.1 kg/m3
111.1 kPa	1004.2 kg/m3
111.3 kPa	1004.2 kg/m3
119.9 kPa	1004.1 kg/m3
120.5 kPa	1004.2 kg/m3
120.6 kPa	1004.1 kg/m3
120.8 kPa	1004.2 kg/m3
121 kPa	1004.2 kg/m3 and 1004.1 kg/m3
121.1 kPa	1004.3 kg/m3
126.7 kPa	1004.3 kg/m3
126.9 kPa	1004.4 kg/m3 and 1004.2 kg/m3
127 kPa	1004.2 kg/m3
127.4 kPa	1004.3 kg/m3
127.5 kPa	1004.1 kg/m3
127.7 kPa	1004.1 kg/m3
128.4 kPa	1004.2 kg/m3
128.6 kPa	1004.3 kg/m3
128.8 kPa	1004.2 kg/m3
129.1 kPa	1004.2 kg/m3
129.8 kPa	1004.2 kg/m3 and 1004.1 kg/m3 and 1004.3 kg/m3
130.3 kPa	1004.2 kg/m3
130.8 kPa	1004.2 kg/m3 and 1004.1 kg/m3
131.2 kPa	1004.3 kg/m3
131.5 kPa	1004.2 kg/m3
131.9 kPa	1004.2 kg/m3
132 kPa	1004.3 kg/m3
132.2 kPa	1004.3 kg/m3
132.4 kPa	1004.1 kg/m3
132.6 kPa	1004.2 kg/m3
132.7 kPa	1004 kg/m3
133.1 kPa	1004.2 kg/m3
133.4 kPa	1004.2 kg/m3
133.8 kPa	1004.2 kg/m3
145.2 kPa	1004.2 kg/m3
145.6 kPa	1004.2 kg/m3
146.1 kPa	1004.2 kg/m3
147 kPa	1004.2 kg/m3
148.7 kPa	1004.2 kg/m3
149.2 kPa	1004.2 kg/m3
149.4 kPa	1004.2 kg/m3
149.8 kPa	1004.4 kg/m3
150.1 kPa	1004.3 kg/m3 and 1004.2 kg/m3
158.8 kPa	1004.2 kg/m3
159 kPa	1004.1 kg/m3
159.1 kPa	1004.2 kg/m3
159.7 kPa	1004.3 kg/m3
159.8 kPa	1004.2 kg/m3
160.2 kPa	1004.3 kg/m3
168.7 kPa	1004.2 kg/m3
168.9 kPa	1004.2 kg/m3
169.4 kPa	1004.2 kg/m3
170.2 kPa	1004.2 kg/m3
170.6 kPa	1004.2 kg/m3
171.1 kPa	1004 kg/m3
171.5 kPa	1004.2 kg/m3
171.8 kPa	1004.1 kg/m3
172.3 kPa	1004.3 kg/m3
172.5 kPa	1004.3 kg/m3
175.8 kPa	1004.2 kg/m3
176.7 kPa	1004.2 kg/m3
177 kPa	1004.3 kg/m3
177.7 kPa	1004.2 kg/m3
216.6 kPa	1004.2 kg/m3
218.2 kPa	1004.4 kg/m3
218.5 kPa	1004.3 kg/m3
224.6 kPa	1004.3 kg/m3
224.9 kPa	1004.3 kg/m3
225.8 kPa	1004.2 kg/m3
226.1 kPa	1004.3 kg/m3
226.8 kPa	1004.3 kg/m3
